The results in this text go back to EP4786487A1, “PEPTIDE” (Peptidream Inc, priority 2023, dated 2025).

Like-named read-outs stand apart in the source and are kept apart here. Starred links: 1 amine or outer side, 2 acyl side, 3 side chain; linkers in the order of their positions; H or OH if unused. Positions of bridges follow the written chain, without caps; N, C: chain ends. Non-standard residues stand in square brackets, D forms with d. Residues, ends and D or L forms follow the SMILES beside them. No end group written: not given here. *: point of attachment. Trp(6-OH,1-(4-HO2C-Ph)) = N[C@@H](Cc1cn(-c2ccc(C(=O)O)cc2)c2cc(O)ccc12)C(=O)O; Phe(3-OCH2COOH) = N[C@@H](Cc1cccc(OCC(=O)O)c1)C(=O)O; NMePhe(4-CH2NH2) = CN[C@@H](Cc1ccc(CN)cc1)C(=O)O; Phe(4-CONH2) = NC(=O)c1ccc(C[C@H](N)C(=O)O)cc1; Phe(4-COOH) = N[C@@H](Cc1ccc(C(=O)O)cc1)C(=O)O; Trp(7-aza) = N[C@@H](Cc1c[nH]c2ncccc12)C(=O)O; Gly(N(CH2)3COOH) = O=C(O)CCCNCC(=O)O; X1 = CCCCCCC[C@H](N[*:1])C(=O)[*:2]; NMeAad = CN[C@@H](CCCC(=O)O)C(=O)O; NMeF = CN[C@@H](Cc1ccccc1)C(=O)O; 3Pal = N[C@@H](Cc1cccnc1)C(=O)O; 4Pal = N[C@@H](Cc1ccncc1)C(=O)O; Carboxymethyl = O=C(O)C*; NMeA = CN[C@@H](C)C(=O)O; Sar = CNCC(=O)O

Broadly, the IC50 is the concentration that gives 50% inhibition.

Holding throughout (format): cell-based
Experiment [1] deals with T1, Myostatin (Homo sapiens, UniProt O14793).
T1 construct: active myostatin (also called mature myostatin) is a homodimer consisting of two C-terminal growth factor domains; purchased R&D systems 788-G8/CF
T1 sequence (O14793 267-375): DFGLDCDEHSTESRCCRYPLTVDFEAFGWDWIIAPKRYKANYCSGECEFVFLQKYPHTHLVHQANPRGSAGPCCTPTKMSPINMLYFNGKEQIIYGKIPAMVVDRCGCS
Briefly: Reporter gene assay for myostatin signaling in HepG2 cell line, Evaluation Procedure (1), myostatin inhibition. As to the method:
(§1) In this Example, the in vitro myostatin inhibitory effects of the peptides synthesized in Examples 1 and 2 were evaluated using a reporter gene assay for myostatin signaling in HepG2 cell line.
(§2) HepG2 cell line (HB-8065, ATCC) cultured in EMEM (055-08975, WAKO Industries) containing 10% FBS (10270106, Gibco) and 50 µg/mL gentamicin (11980-14, Nacalai Tesque) was seeded in 96-well plates (167008, Thermo) at 2.0 × 10^4 cells/well and incubated in a CO2 incubator (37°C, 5% CO2) for 24 hours. The pGL3(CAGA)12-luc plasmid, namely a pGL3 vector (E1751, Promega) having a luciferase gene inserted downstream of a promoter sequence with 12 CAGA repeats attached, was added to the wells along with a transfection reagent (X-treamGENE9 DNA Transfection Reagent, 6365809001, Roche) at a concentration of 0.04 µg/well. The cell line was cultured in a CO2 incubator (37°C, 5% CO2) for 24 hours for transfection. The medium was discarded and replaced with EMEM containing 50 µL/well of 0.1% bovine serum albumin (A7030, Sigma) and 50 µg/mL gentamicin, and incubated in a CO2 incubator (37°C, 5% CO2) for 2 hours.
(§3) Myostatin (788-G8/C, R&D systems) or GDF-11 (1958-GD-G8/CF, R&D systems) was added so that the final concentrations were those listed in Table 5.
(§4) A 4-fold dilution series of various peptides synthesized in Examples 1 and 2 was added to achieve 0.006-100 nmol/L (myostatin inhibition) and 0.12-2000 nmol/L (GDF-11 inhibition). At this time, blank wells, in which neither myostatin, GDF-11, nor each peptide was added, were also prepared and incubated in a CO2 incubator (37°C, 5% CO2) for 20 to 24 hours.
(§5) The medium containing the cells was removed, and a mixture containing PBS (14190144, Thermo) and a chromogenic substrate One-Glo Luciferase Assay System (E6120, Promega) at a ratio of 1:1 was added to each well at 100 µL/well. This was stirred with a plate shaker for 5 min and transferred to a 384-well plate (3570, Corning) at a volume of 20 µL/well.
(§6) The plate was centrifuged at 1,000 × g for 1 min and the luminescence signal (700 nm luminescence) was measured using a plate reader (Envision 2104, PerkinElmer). Based on the measured values, IC50 values of the peptides were calculated using software (Prism 9, GraphPad). […]
(§7) In this Example, the in vitro myostatin inhibitory effects of the peptides synthesized in Examples 10 and 11 were evaluated according to the Evaluation Procedure (1) in Example 3.
Background: In a reporter assay the amount or activity of a reporter protein is the signal.

Experiment [2] concerns Myostatin. The description is as above. As to conditions: for Selectivity: GDF-11 IC50 versus Myostatin IC50. As to the method: as §1, §2, §3, §4, §5, §6, §7
The next experiment has as its target T2, GDF-11 (Homo sapiens, UniProt O95390).
T2 construct: purchased R&D systems 1958-GD-G8/CF
T2 sequence (O95390 299-407): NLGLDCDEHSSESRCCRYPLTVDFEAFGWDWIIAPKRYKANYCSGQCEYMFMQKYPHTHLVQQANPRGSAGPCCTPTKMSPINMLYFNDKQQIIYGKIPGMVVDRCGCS
Briefly: Reporter gene assay for myostatin signaling in HepG2 cell line, Evaluation Procedure (1), GDF-11 inhibition. The protocol:
as §1, §2, §3, §4, §5, §6, §7

Where [3] appears, read: Method A: Myostatin 10 ng/mL, read-out: IC50 (Luciferase) Myostatin HepG2.
Setting [4] is: Method A: GDF-11 10 ng/mL, read-out: IC50 (Luciferase) GDF-11 HepG2.

For `CC[C@H](C)[C@@H]1NC(=O)[C@H](Cc2ccccc2)N(C)C(=O)[C@H](Cc2ccc(O)cc2)NC(=O)[C@H](Cc2c[nH]c3ncccc23)NC(=O)[C@H](C)NC(=O)CN(CCCC(=O)O)C(=O)CSC[C@H](C(=O)O)NC(=O)[C@H](Cc2ccccc2)N(C)C(=O)[C@H](C)N(C)C(=O)[C@H](CC(C)C)NC(=O)[C@H](Cc2ccccc2)N(C)C(=O)[C@H](CCCNC(=N)N)NC(=O)[C@H](Cc2ccc(C(=O)O)cc2)NC(=O)[C@H](Cc2ccccc2)NC(=O)CN(C)C1=O` [Myostatin_99_Variant_20-OH] ({CH2CO}-[Gly(N(CH2)3COOH)]A[Trp(7-aza)]Y[NMeF]I[Sar]F[Phe(4-COOH)]R[NMeF]L[NMeA][NMeF][dC]-OH; thioether N-15), the IC50 amounted to 0.0448 µM at Myostatin [1] (setting [3]) and 2.01 µM on GDF-11 (setting [4]). Also, in the experiment with Myostatin [2] (Method A), the Selectivity is recorded as 45.
Take `CC[C@H](C)[C@@H]1NC(=O)[C@H](Cc2ccccc2)N(C)C(=O)[C@H](Cc2ccc(O)cc2)NC(=O)[C@H](Cc2c[nH]c3ncccc23)NC(=O)[C@H](C)NC(=O)CN(CCCC(=O)O)C(=O)CSC[C@H](C(=O)O)NC(=O)[C@H](Cc2ccccc2)N(C)C(=O)[C@H](C)N(C)C(=O)[C@H](CC(C)C)NC(=O)[C@H](Cc2ccccc2)N(C)C(=O)[C@H](CCCNC(=N)N)NC(=O)[C@H](Cc2ccc(C(=O)O)cc2)NC(=O)[C@H](Cc2ccncc2)NC(=O)CN(C)C1=O` [Myostatin_99_Variant_21-OH] ({CH2CO}-[Gly(N(CH2)3COOH)]A[Trp(7-aza)]Y[NMeF]I[Sar][4Pal][Phe(4-COOH)]R[NMeF]L[NMeA][NMeF][dC]-OH; thioether N-15): the IC50 on Myostatin [1] (setting [3]) stood at 0.106 µM; on GDF-11 (setting [4]), 4.32 µM. For the same compound, the Selectivity with Myostatin [2] (Method A) is 41.
Regarding `CC[C@H](C)[C@@H]1NC(=O)[C@H](Cc2ccccc2)N(C)C(=O)[C@H](Cc2ccc(O)cc2)NC(=O)[C@H](Cc2c[nH]c3ncccc23)NC(=O)[C@H](C)NC(=O)CN(CCCC(=O)O)C(=O)CSC[C@H](C(=O)NCC(=O)N[C@H](CCC(=O)O)C(=O)NCC(=O)N[C@H](CCCCN)C(=O)O)NC(=O)[C@H](Cc2ccccc2)N(C)C(=O)[C@H](C)N(C)C(=O)[C@H](CC(C)C)NC(=O)[C@H](Cc2ccccc2)N(C)C(=O)[C@H](CCCNC(=N)N)NC(=O)[C@H](Cc2ccc(C(=O)O)cc2)NC(=O)[C@H](Cc2ccncc2)NC(=O)CN(C)C1=O` [Myostatin_99_v31] ({CH2CO}-[Gly(N(CH2)3COOH)]A[Trp(7-aza)]Y[NMeF]I[Sar][4Pal][Phe(4-COOH)]R[NMeF]L[NMeA][NMeF][dC]G[dE]G[dK]-OH; thioether N-15), the IC50 at Myostatin [1] (setting [3]) came out at 0.0547 µM; at GDF-11 (setting [4]) it was 1.34 µM. This compound yielded a Selectivity in the experiment on Myostatin [2] (Method A) of 25.
For the compound `CC[C@H](C)[C@@H]1NC(=O)[C@H](Cc2ccccc2)N(C)C(=O)[C@H](Cc2ccc(O)cc2)NC(=O)[C@H](Cc2c[nH]c3ncccc23)NC(=O)[C@H](C)NC(=O)CN(CCCC(=O)O)C(=O)CSC[C@H](C(=O)O)NC(=O)[C@H](Cc2ccccc2)N(C)C(=O)[C@H](C)N(C)C(=O)[C@H](CC(C)C)NC(=O)[C@H](Cc2ccccc2)N(C)C(=O)[C@H](CCCNC(=N)N)NC(=O)[C@H](Cc2cccnc2)NC(=O)[C@H](Cc2ccccc2)NC(=O)CN(C)C1=O` [Myostatin_99_v41] ({CH2CO}-[Gly(N(CH2)3COOH)]A[Trp(7-aza)]Y[NMeF]I[Sar]F[3Pal]R[NMeF]L[NMeA][NMeF][dC]-OH; thioether N-15), the IC50 on Myostatin [1] (setting [3]) is 0.0637 µM; on GDF-11 (setting [4]) it was 1.63 µM. Moreover, the Selectivity in the experiment with Myostatin [2] (Method A) amounted to 26.
`CC[C@H](C)[C@@H]1NC(=O)[C@H](Cc2ccccc2)N(C)C(=O)[C@H](Cc2ccc(O)cc2)NC(=O)[C@H](Cc2c[nH]c3ncccc23)NC(=O)[C@H](C)NC(=O)CN(CCCC(=O)O)C(=O)CSC[C@H](C(=O)O)NC(=O)[C@H](Cc2ccccc2)N(C)C(=O)[C@H](C)N(C)C(=O)[C@H](CC(C)C)NC(=O)[C@H](Cc2ccccc2)N(C)C(=O)[C@H](CCCNC(=N)N)NC(=O)[C@H](Cc2ccc(OCC(=O)O)cc2)NC(=O)[C@H](Cc2ccccc2)NC(=O)CN(C)C1=O` [Myostatin_99_v43] ({CH2CO}-[Gly(N(CH2)3COOH)]A[Trp(7-aza)]Y[NMeF]I[Sar]FY(Carboxymethyl)R[NMeF]L[NMeA][NMeF][dC]-OH; thioether N-15): the IC50 at Myostatin [1] (setting [3]) came out at 0.0332 µM; at GDF-11 (setting [4]) it was 1.99 µM. In the experiment on Myostatin [2] (Method A), this compound came in with a Selectivity of 60.
Turning to `CC[C@H](C)[C@@H]1NC(=O)[C@H](Cc2ccccc2)N(C)C(=O)[C@H](Cc2ccc(O)cc2)NC(=O)[C@H](Cc2c[nH]c3ncccc23)NC(=O)[C@H](C)NC(=O)CN(CCCC(=O)O)C(=O)CSC[C@H](C(=O)O)NC(=O)[C@H](Cc2ccccc2)N(C)C(=O)[C@H](C)N(C)C(=O)[C@H](CC(C)C)NC(=O)[C@H](Cc2ccccc2)N(C)C(=O)[C@H](CCCNC(=N)N)NC(=O)[C@H](Cc2ccc(C(N)=O)cc2)NC(=O)[C@H](Cc2ccccc2)NC(=O)CN(C)C1=O` [Myostatin_99_v44] ({CH2CO}-[Gly(N(CH2)3COOH)]A[Trp(7-aza)]Y[NMeF]I[Sar]F[Phe(4-CONH2)]R[NMeF]L[NMeA][NMeF][dC]-OH; thioether N-15), the IC50 at Myostatin [1] (setting [3]) worked out at 0.0084 µM; at GDF-11 (setting [4]) it was 0.81 µM. This compound gave a Selectivity in the experiment on Myostatin [2] (Method A) of 96.
`CCCCCCC[C@@H]1NC(=O)[C@@H]2Cc3ccc(cc3)CNC(=O)C[C@H](NC(=O)CSC[C@H](C(=O)O)NC(=O)[C@H](Cc3ccccc3)N(C)C(=O)[C@H](C)N(C)C1=O)C(=O)N[C@@H](C)C(=O)N[C@@H](Cc1c[nH]c3ccccc13)C(=O)N[C@@H](Cc1ccc(O)cc1)C(=O)N(C)[C@@H](Cc1ccccc1)C(=O)N[C@@H]([C@@H](C)CC)C(=O)N(C)[C@@H](C)C(=O)N[C@@H](Cc1cccc(OCC(=O)O)c1)C(=O)N[C@@H](Cc1ccc(C(=O)O)cc1)C(=O)N[C@@H](CCCNC(=N)N)C(=O)N2C` [Myostatin_99_v386] ({CH2CO}-DAWY[NMeF]I[NMeA][Phe(3-OCH2COOH)][Phe(4-COOH)]R[NMePhe(4-CH2NH2)][X1][NMeA][NMeF][dC]-OH; lactam 1-11 (inferred); thioether N-15 (inferred); N-terminus and C-terminus assumed) returned a Selectivity in the experiment on Myostatin [2] (Method D) of 294.1.
For `CCCCCCC[C@@H]1NC(=O)[C@@H]2Cc3ccc(cc3)CNC(=O)CCC[C@@H](C(=O)N[C@@H](C)C(=O)N[C@@H](Cc3cn(-c4ccc(C(=O)O)cc4)c4cc(O)ccc34)C(=O)N[C@@H](Cc3ccc(O)cc3)C(=O)N(C)[C@@H](Cc3ccccc3)C(=O)N[C@@H]([C@@H](C)CC)C(=O)N3CCC[C@@H]3C(=O)N[C@@H](Cc3cccc(OCC(=O)O)c3)C(=O)N[C@@H](Cc3ccc(C(=O)O)cc3)C(=O)N[C@@H](CCCNC(=N)N)C(=O)N2C)N(C)C(=O)[C@H](C)N(C)C(=O)[C@@H](C)NC(=O)[C@H](Cc2ccccc2)N(C)C(=O)[C@H](C)N(C)C1=O` [Myostatin_99_v490] (cyclo(A[Trp(6-OH,1-(4-HO2C-Ph))]Y[NMeF]I[dP][Phe(3-OCH2COOH)][Phe(4-COOH)]R[NMePhe(4-CH2NH2)][X1][NMeA][NMeF][dA][NMeA][NMeAad]); lactam 10-16), the IC50 against Myostatin [1] (HepG2, luciferase reporter, Evaluation Procedure (1), Method D) came to 0.0007 µM; on GDF-11 (HepG2, luciferase reporter, Evaluation Procedure (1), Method D, read-out: IC50 (Luciferase) GDP-11 HepG2), 0.112 µM.
On to “A-R-W-Y-MeF-I-MeG-Y-Y-R-MeF-L-MeA-MeF-C (ARWY[NMeF]I[Sar]YYR[NMeF]L[NMeA][NMeF]C) [SEQ ID NO: 1]”, for which the “inhibitory activity against myostatin” value with Myostatin [2] (HepG2 reporter assays, statement in words) is given as “confirmed to have myostatin inhibitory activity”.
